Reference: ChEMBL document CHEMBL1149987, “Synthesis and biological evaluation of new arachidonic acid analogs” (Bioorg Med Chem Lett, 1994)

What was measured:
[1] = target: T1, Polyunsaturated fatty acid 5-lipoxygenase (Homo sapiens, UniProt P09917); experiment: Compound was tested for the inhibition of 5-lipoxygenase of human PMN stimulated by calcium ionophore A-23187 for the formation of 5-HETE
T1 sequence (P09917 whole entry): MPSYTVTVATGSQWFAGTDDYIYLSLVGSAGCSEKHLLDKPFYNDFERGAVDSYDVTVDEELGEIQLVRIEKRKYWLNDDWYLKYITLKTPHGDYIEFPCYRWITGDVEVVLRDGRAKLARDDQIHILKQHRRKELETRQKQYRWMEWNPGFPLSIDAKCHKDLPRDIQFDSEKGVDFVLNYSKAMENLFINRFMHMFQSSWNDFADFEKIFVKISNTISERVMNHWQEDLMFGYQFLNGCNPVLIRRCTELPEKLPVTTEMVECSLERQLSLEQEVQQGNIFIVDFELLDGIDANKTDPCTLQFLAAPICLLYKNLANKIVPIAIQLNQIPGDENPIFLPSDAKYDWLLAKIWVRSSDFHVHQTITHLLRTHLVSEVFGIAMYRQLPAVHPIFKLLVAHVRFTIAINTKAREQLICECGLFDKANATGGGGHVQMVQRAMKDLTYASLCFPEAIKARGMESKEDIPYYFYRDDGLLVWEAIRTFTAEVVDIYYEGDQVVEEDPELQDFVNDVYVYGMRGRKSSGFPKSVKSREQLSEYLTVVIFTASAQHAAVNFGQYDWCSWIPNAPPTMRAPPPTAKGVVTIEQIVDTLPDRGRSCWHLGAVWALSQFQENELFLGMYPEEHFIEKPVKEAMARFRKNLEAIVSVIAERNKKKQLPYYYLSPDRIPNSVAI

[2] = target: T1, Polyunsaturated fatty acid 5-lipoxygenase; experiment: Compound was tested for the inhibition of 5-lipoxygenase of human PMN stimulated by calcium ionophore A-23187 for the formation of leukotriene B4 (LTB4)

| IC50 [1] | IC50 [2] | Structure (SMILES) |
| --- | --- | --- |
| 1.1 µM | 1.9 µM | CCCCC/C=C\C/C=C\[C@H]1CC(C)=C(C)C[C@H]1/C=C\C/C=C\CCCC(=O)O |
| 1.7 µM | 2.4 µM | CCCCC/C=C\C/C=C\[C@@H]1C[C@H]1/C=C\C/C=C\CCCC(=O)O (stereo in doubt; (-)-7a) |
| 1 µM | 1.6 µM | CCCCC/C=C\C/C=C\[C@@H]1CC(C)=C(C)C[C@H]1/C=C\C/C=C\CCCC(=O)O |
| 2.9 µM | 2.8 µM | CCCCC/C=C\C/C=C\[C@@H]1C[C@H]1/C=C\C/C=C\CCCC(=O)O (stereo in doubt; (+)-7a) |
